The text below walks through data of patent US20210253598A1, “ARYL ANNULATED MACROCYCLIC INDOLE DERIVATIVES” (priority 2017, published 2021).

Data set [1] relates to SUDHL5. Description: Induction of caspase-3/7 activity in SUDHL5 cells (Assay 4). Conditions: SUDHL5, 3 hours treatment, Caspase-Glo 3/7, median, read-out: Caspase SUDHL5 [M] (median). It is filed as cell-based. On the procedure: (§1) Induction of Caspase-3/7 Activity Upon Treatment of Cells with Selected Compounds
(§2) The BH3-domain of MCL-1 sequesters pro-apoptotic proteins, thereby inhibiting apoptosis. In contrast, MCL-1 inhibitors are expected to antagonize this effect leading to an increase in apoptosis, which can be determined by measuring the activity of caspase-3/7.
(§3) The activity of caspase-3/7 was determined in DLBCL (Diffuse large B-cell lymphoma) cell lines (SUDHL5 and SUDHL10) upon treatment with different compounds, using the Caspase-Glo® 3/7 reagent from Promega (G8092).
(§4) As a control, medium without cells was also added to the plate. Cells were incubated in a humidified incubator at 37° C. overnight.
(§5) Rim wells were excluded. The cells were incubated for 3 hours in a humidified incubator at 37° C. After this incubation, 30 μl of Caspase-Glo® 3/7 reagent (Promega G8092) was added to each well using the Multidrop Combi Reagent Dispenser, followed by 1 hour incubation at 37° C. Finally, luminescence was read at 0.1 ms, with a gain of 3000 using the PHERAstar FS microplate reader (BMG Labtech).
(§6) For the evaluation of the results, the background measured with “medium-only” was subtracted from all other values. Then, the values were normalized to DMSO-only treated cells (every value was divided by the mean of the DMSO control).

The subject of data set [2] is SUDHL10. Description: Induction of cytotoxicity in SUDHL10 cells, CellTiter-Glo (Assay 6). It is filed as cell-based. The procedure: (§7) Induction of Cytotoxicity Upon Treatment of Cells with Selected Compounds
(§8) In principle, compounds that induce apoptosis will concomitantly induce cell cytotoxicity. Therefore, cytotoxicity assays were run in parallel in SUDHL5 and SUDHL10 cells.
(§9) As a control, medium without cells was also added to the plate. Cells were incubated in a humidified incubator at 37° C. overnight. […] Rim wells were excluded. The cells were incubated for 5 hours in a humidified incubator at 37° C. After this incubation, 30 μl of CellTiter-Glo® Luminescent Cell Viability reagent (Promega, G7573) was added to each well using the Multidrop Combi Reagent Dispenser, followed by 15 minutes incubation on a shaker at room temperature. Finally, luminescence was read at 0.1 ms, with a gain of 3000 using the PHERAstar FS microplate reader (BMG Labtech).
(ATP-based viability assays read luminescence as a measure of living cells.)

For data set [3], the system named is SUDHL5. Nature of the data set: Induction of cytotoxicity in SUDHL5 cells, CellTiter-Glo (Assay 6). It is filed as cell-based. The procedure:
as §7, §8, §9

In a further data set the target is MCL-1 (Homo sapiens, UniProt Q07820, K194A/K197A/R201A). Nature of the data set: Protein-protein interaction assay MCL-1/Noxa BH3 peptide, TR-FRET (MCL-1 assay, Assay 1). In kind it is binding. Conditions: MCL-1 Assay [M] (median), MBP-MCL-1 / Noxa BH3 peptide. The procedure: The dose-dependent inhibition by the compounds described in this invention of the interaction between MCL-1 and the BH3 domain of Noxa (both human) was determined using a steady state binding competition assay with time-resolved fluorescence energy transfer (TR-FRET) readout. For that purpose MCL-1 (amino acids 173-321, N-terminal fused to Maltose Binding Protein (MBP), SEQ ID 1) and a synthetic Noxa BH3-derived peptide of sequence Biotin-PEG2-PEG2-PAELEVE-Nva-[…]-amide (SEQ ID 2) served as protein receptor and tracer ligand respectively. The MBP-MCL-1 was purchased from Beryllium (Bedford, Mass., USA). The expression and purification of this protein construct has been described elsewhere (DOI:10.1371/journal.pone.0125010). The Noxa BH3-derived peptide can be obtained from e.g. Biosyntan (Berlin, Germany).
For that, 100-fold concentrated DMSO solutions were prepared by serial dilutions (1:3.4) of a 2 mM stock solution in a clear, 384-well microtiter plate (Greiner Bio-One, Frickenhausen, Germany). From there, 50 nl were transferred in a dark test plate (Greiner Bio-One, Frickenhausen, Germany). The assay was initiated by addition of 2 μl of a 2,5-fold concentrated MBP-MCL-1 solution (usually for a 1 nM end concentration in 5 μl reaction volume) in aqueous assay buffer [50 mM Tris/HCl pH 7, 100 mM sodium chloride (NaCl), 50 mM potassium fluoride (KF), 0.005% Tween-20, 2 mM DTT, 0.1% bovine gamma globulin (BGG)] to the compounds in the assay plate. This was followed by a 10-minute incubation step at 22° C. for pre-equilibration of the putative complex between MBP-MCL-1 and the compounds.
The mixture was incubated in the dark for one hour at 22° C. and then overnight at 4° C. The formation of MCL-1/Noxa complexes was determined by measuring the resonance energy transfer of the anti-MBP-Eu-cryptate antibody to the streptavidin-XL665 present in the reaction.
The resulting data (ratio) were normalized, taking 0% inhibition as the mean value of control measurements (usually 32 data points) where all reagents were included. In this case 50 nl DMSO were used instead of compounds. […] IC50 values were determined by regression analysis based on a 4 parameter equation (minimum, maximum, IC50, Hill; Y=Max+(Min−Max)/(1+(X/IC50)^Hill) using the Screener Software (Genedata).
For orientation: Time-resolved FRET reads energy transfer from a long-lived donor to a nearby acceptor.

In data set [4] the test system is SUDHL10. Nature of the data set: Induction of caspase-3/7 activity in SUDHL10 cells (Assay 4). Conditions: SUDHL10, 3 hours treatment, Caspase-Glo 3/7, median, read-out: Caspase SUDHL10 [M] (median). In kind it is cell-based. On the procedure:
as §1, §2, §3, §4, §5, §6

Setting [5] is: SUDHL10, 5 hours incubation, median, read-out: Cytotox SUDHL10 [M] (median).
Setting [6] is: SUDHL5, 5 hours incubation, median, read-out: Cytotox SUDHL5 [M] (median).
Where [7] appears, read: Homo sapiens, SU-DHL10, 5 h, SUDHL10, 5 hours incubation, median, read-out: Cytotox SUDHL10 [M] (median).

Where a name gives a salt, the structure may show the parent alone. Read-outs that look alike come from different tables or passages of the source.

Sequence of MCL-1 (Q07820 173-321 K194A/K197A/R201A, looked up): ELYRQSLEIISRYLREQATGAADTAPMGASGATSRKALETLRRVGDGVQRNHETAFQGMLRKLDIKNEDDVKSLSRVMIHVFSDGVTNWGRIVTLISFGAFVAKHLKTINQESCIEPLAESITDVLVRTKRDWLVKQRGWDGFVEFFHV

Turning to `Cc1c2c(nn1C)CN(S(=O)(=O)c1ccc(N3CCOCC3)nc1)Cc1ccccc1Cn1c(C(=O)O)c(CCCOc3cccc4ccccc34)c3cccc-2c31` (single isomer, unassigned; enantiomer 1) [Example 18, (+)-4,5-Dimethyl-8-{[6-(morpholin-4-yl)pyridin-3-yl]sulfonyl}-17-[3-(naphthalen-1-yloxy)propyl]-7,8,9,14-tetrahydro-5H-indolo[1,7-bc]pyrazolo[4,3-e][2,8]benzodiazacycloundecine-16-carboxylic Acid (Enantiomer 1)], the figures for the EC50 in the data set with SUDHL5 [1] and in the data set on SUDHL10 [4] were 9.2e-07 M and 5.2e-06 M, respectively. Also, the figures for the IC50 in the data set on SUDHL10 [2] (setting [5]), with SUDHL5 [3] (setting [6]) and against MCL-1 were 3.8e-06 M, 1.4e-06 M and 2.9e-08 M, respectively.

As to `Cc1c2c(nn1C)CN(C(=O)CC1CCOCC1)Cc1ccccc1Cn1c(C(=O)O)c(CCCOc3cccc4ccccc34)c3cccc-2c31` (single isomer, unassigned; enantiomer 2) [Example 23, (+)-4,5-Dimethyl-17-[3-(naphthalen-1-yloxy)propyl]-8-(tetrahydro-2H-pyran-4-ylacetyl)-7,8,9,14-tetrahydro-5H-indolo[1,7-bc]pyrazolo[4,3-e][2,8]benzodiazacycloundecine-16-carboxylic Acid (Enantiomer 2)], the EC50 came out at 4.2e-06 M in the data set on SUDHL5 [1] and 1.2e-05 M with SUDHL10 [4]. Besides, the IC50 is 1.1e-05 M with SUDHL10 [2] (setting [5]), 4.4e-06 M with SUDHL5 [3] (setting [6]) and 3.9e-08 M against MCL-1.

Take `Cc1c2c(nn1C)CN(C(=O)CC1CCOCC1)Cc1ccccc1Cn1c(C(=O)O)c(CCCOc3cccc4ccccc34)c3cccc-2c31` (single isomer, unassigned; enantiomer 1) [Example 22, (−)-4,5-Dimethyl-17-[3-(naphthalen-1-yloxy)propyl]-8-(tetrahydro-2H-pyran-4-ylacetyl)-7,8,9,14-tetrahydro-5H-indolo[1,7-bc]pyrazolo[4,3-e][2,8]benzodiazacycloundecine-16-carboxylic Acid (Enantiomer 1)]: the EC50 in the data set on SUDHL5 [1] was 1.4e-05 M; with SUDHL10 [4], above 3.3e-05 M. Besides, the IC50 in the data set on SUDHL10 [2] (setting [5]) was above 3.3e-05 M; in the data set on SUDHL5 [3] (setting [6]), 1.7e-05 M; on MCL-1, 6.5e-07 M.

For the compound `Cc1c2c(nn1C)CN(C(=O)NCC1CCOCC1)Cc1ccccc1Cn1c(C(=O)O)c(CCCOc3cccc4ccccc34)c3cccc-2c31` (single isomer, unassigned; enantiomer 1) [Example 28, (+)-4,5-Dimethyl-17-[3-(naphthalen-1-yloxy)propyl]-8-[(tetrahydro-2H-pyran-4-ylmethyl)carbamoyl]-7,8,9,14-tetrahydro-5H-indolo[1,7-bc]pyrazolo[4,3-e][2,8]benzodiazacycloundecine-16-carboxylic Acid (Enantiomer 1)], the EC50 is above 3.3e-05 M in the data set on SUDHL5 [1] and above 3.3e-05 M in the data set with SUDHL10 [4] (Homo sapiens, SU-DHL10, 3 h). In addition, the IC50 with SUDHL10 [2] (setting [7]) was above 3.3e-05 M; in the data set with SUDHL5 [3] (setting [6]) it was above 3.3e-05 M; at MCL-1, 2.8e-07 M.

On to `Cc1c2c(nn1C)CNCc1ccccc1Cn1c(C(=O)O)c(CCCOc3cccc4ccccc34)c3cccc-2c31` (single isomer, unassigned; enantiomer 2) [Example 13, 4,5-Dimethyl-17-[3-(naphthalen-1-yloxy)propyl]-7,8,9,14-tetrahydro-5H-indolo[1,7-bc]pyrazolo-[4,3-e][2,8]benzodiazacycloundecine-16-carboxylic acid-Trifluoroacetic Acid Salt (Enantiomer 2)], for which the EC50 in the data set with SUDHL5 [1] was 1.4e-05 M; in the data set on SUDHL10 [4], above 3.3e-05 M. Besides, the IC50 was determined as 2.5e-05 M in the data set with SUDHL10 [2] (read-out: Cytotox SUDHL10 [M] (median), SUDHL10, 5 hours incubation); 1.7e-05 M with SUDHL5 [3] (read-out: Cytotox SUDHL5 [M] (median), SUDHL5, 5 hours incubation); 1.7e-07 M on MCL-1.

Turning to `Cc1c2c(nn1C)CN(C(=O)NC1CCOCC1)Cc1ccccc1Cn1c(C(=O)O)c(CCCOc3cccc4ccccc34)c3cccc-2c31` (single isomer, unassigned; enantiomer 1) [Example 25, (+)-4,5-Dimethyl-17-[3-(naphthalen-1-yloxy)propyl]-8-(tetrahydro-2H-pyran-4-ylcarbamoyl)-7,8,9,14-tetrahydro-5H-indolo[1,7-bc]pyrazolo[4,3-e][2,8]benzodiazacycloundecine-16-carboxylic Acid (Enantiomer 1)], the EC50 in the data set with SUDHL5 [1] (Homo sapiens, SU-DHL-5, 3 h) was above 3.3e-05 M; in the data set with SUDHL10 [4] (Homo sapiens, SU-DHL10, 3 h) it was above 3.3e-05 M. Besides, the IC50 with SUDHL10 [2] (setting [7]) was above 3.3e-05 M; in the data set on SUDHL5 [3] (setting [6]), above 3.3e-05 M; on MCL-1, 2.6e-07 M.

Take `Cc1c2c(nn1C)CN(C(=O)NCC1CCOCC1)Cc1ccccc1Cn1c(C(=O)O)c(CCCOc3cccc4ccccc34)c3cccc-2c31` (single isomer, unassigned; enantiomer 2) [Example 29, (−)-4,5-Dimethyl-17-[3-(naphthalen-1-yloxy)propyl]-8-[(tetrahydro-2H-pyran-4-ylmethyl)carbamoyl]-7,8,9,14-tetrahydro-5H-indolo[1,7-bc]pyrazolo[4,3-e][2,8]benzodiazacycloundecine-16-carboxylic Acid (Enantiomer 2)]: the EC50 in the data set with SUDHL5 [1] is 1e-05 M; in the data set with SUDHL10 [4], 2.3e-05 M. Moreover, the IC50 was 2.3e-05 M with SUDHL10 [2] (setting [5]), 1.4e-05 M in the data set with SUDHL5 [3] (setting [6]) and 3e-08 M against MCL-1.

Regarding `Cc1c2c(nn1C)CN(S(=O)(=O)c1ccc(N3CCOCC3)nc1)Cc1ccccc1Cn1c(C(=O)O)c(CCCOc3cccc4ccccc34)c3cccc-2c31` (single isomer, unassigned; enantiomer 2) [Example 19, (−)-4,5-Dimethyl-8-{[6-(morpholin-4-yl)pyridin-3-yl]sulfonyl}-17-[3-(naphthalen-1-yloxy)propyl]-7,8,9,14-tetrahydro-5H-indolo[1,7-bc]pyrazolo[4,3-e][2,8]benzodiazacycloundecine-16-carboxylic Acid (Enantiomer 2)], the EC50 with SUDHL5 [1] was 1.7e-05 M; in the data set with SUDHL10 [4], above 3.3e-05 M. Besides, the IC50 was above 3.3e-05 M with SUDHL10 [2] (setting [5]), 2.3e-05 M with SUDHL5 [3] (setting [6]) and 9.4e-07 M at MCL-1.
